From patent US7256215B2, “Crystals of 5-hydroxycarbamimidoyl-2-hydroxybenzenesulfonamide derivative” (Kissei Pharmaceutical Co., Ltd., priority 2002, dated 2007)
Like-named read-outs stand apart in the source and are kept apart here.

Assays:
[1] = Storage stability test (residual rate by HPLC); format: physicochemical; settings: hydrochloride; for Residual Rate (%): storage at 40° C./90% relative humidity for two months, HPLC; for Storage stability (in words): stored for a long period
Description: (Storage Stability Test) Stability test was carried out under a storage condition of 40° C./90% relative humidity for two months for test substances. The residual rates of test substances were determined by HPLC according to the following conditions. HPLC Condition: • Detection wavelength; 225 nm • Column; CAPCELL PAK C18, MG 5 μm, 3.0 mm I.D.×250 mm • Column temperature; 35° C. • Mobile phase; • 0.02 mol/L phosphate buffer (pH 6.0): acetonitrile mixed solvent • 0→20 min; 42:58 • 20→40 min; 42:58→70:30 • 40→45 min; 70:30 • Flow rate; 0.5 mL/min

[2] = Saturated water solubility; format: physicochemical; settings: for solubility: thermodynamic from solid, water
Description: (Saturated Water Solubility) Approximately 40 mg of test substances is placed in a vessel, and approximately 15 mL of water is added thereto to suspend. The suspensions are warmed at 37° C. with stirring, and approximately 1 mL of aliquots is collected with time. Each of aliquots is filtered through a 0.45 μm filter. Thereafter, 500 μL is taken accurately from the filtrate, and 500 μL of a mixed solvent of water/acetonitrile (1/1) is added thereto to prepare a test solution. Five μL of the test solution is analyzed by a high performance liquid chromatography method according to the following conditions. Among water solubilities at each point of test solutions, the highest concentration is estimated as a saturated water solubility. HPLC Condition: • Detection wavelength; 225 nm • Column; Inertsil ODS-3, 5 μm, 4.6 mm I.D.×250 mm • Column temperature; 30° C. • Mobile phase; • 0.02 mol/L phosphate buffer (pH 3.0): acetonitrile mixed solvent • 0→30 min; 42:58 • Flow rate; […] • Measurement time; 30 min

prothrombin time (PT) = experiment: Prothrombin time (PT) in plasma of orally dosed rats; format: in vivo, Male Wistar rats; settings: PT after administration / before administration; rat plasma, oral, 6.0 mg/mL suspension, 5.0 mL/kg, 30 minutes
Description: (Measurement of Activated Blood Coagulation Factor X Inhibitory Activity and Prothrombin Time (PT)) Male Wistar rats aged 6-9 weeks (SLC) fasted overnight were used. Test substances were suspended in 0.5% methylcellulose solution at the concentration of 6.0 mg/mL. Then 5.0 mL/kg of those was orally administrated into the rats. Then, 30 minutes before and after the administration of the test substances, citrated (1:10 dilution, 3.13% sodium citrate) bloods were collected from the jugular vein. Plasma samples were obtained by centrifugation. Effects of test substances on activated blood coagulation factor X and prothrombin time (PT) were investigated using the plasma samples according to the following procedures. 2) Prothrombin Time (PT). Fifty μL of plasma was put in the process tube and then incubated at 37° C. One minute later, 100 mu L of plasma PT reagent (Boehringer Mannheim) prewarmed at 37° C. was added into the mixture. PT was measured with a coagulometer (ST4, Boehringer Mannheim). The ratio of PT at each time point after administration of the test substance to that of before administration was used as the index of anticoagulation activity.

[3] = Oral bioavailability (statement, no method given); format: in vivo
[4] = Storage under ordinary conditions, retention of crystalline form; format: physicochemical; settings: 25° C./60% relative humidity, long period
[5] = target: T1, activated blood coagulation factor X (Homo sapiens, UniProt P00742); experiment: Activated blood coagulation factor X inhibitory activity in plasma of orally dosed rats; format: in vivo, Male Wistar rats; design: purchased Calbiochem; settings: rat plasma 30 minutes after oral administration; 6.0 mg/mL suspension in 0.5% methylcellulose, 5.0 mL/kg
Description: (Measurement of Activated Blood Coagulation Factor X Inhibitory Activity and Prothrombin Time (PT))
Male Wistar rats aged 6-9 weeks (SLC) fasted overnight were used. Test substances were suspended in 0.5% methylcellulose solution at the concentration of 6.0 mg/mL. Then 5.0 mL/kg of those was orally administrated into the rats. Then, 30 minutes before and after the administration of the test substances, citrated (1:10 dilution, 3.13% sodium citrate) bloods were collected from the jugular vein. Plasma samples were obtained by centrifugation. Effects of test substances on activated blood coagulation factor X and prothrombin time (PT) were investigated using the plasma samples according to the following procedures.
1) Activated Blood Coagulation Factor X Inhibitory Activity
2.5 μL of plasma sample, 200 μL of 100 mM tris-200 mM NaCl buffer (pH 8.4) and 10 μL of 0.06 U/mL human activated blood coagulation factor X (Calbiochem) in gelatin-glycine buffer were poured into 96 well microplate. […] The reaction was terminated with the addition of 50 μL of 60% acetic acid and absorbance (405 nm) was measured by a microplate reader (SPECTRAmax250, Molecular Devices). […] The inhibitory % of plasma sample was calculated from absorbance of the control as 100% and this value was used as the index of anti-activated blood coagulation factor X activity in plasma.
Target sequence in this assay (P00742 235-488 limits assumed): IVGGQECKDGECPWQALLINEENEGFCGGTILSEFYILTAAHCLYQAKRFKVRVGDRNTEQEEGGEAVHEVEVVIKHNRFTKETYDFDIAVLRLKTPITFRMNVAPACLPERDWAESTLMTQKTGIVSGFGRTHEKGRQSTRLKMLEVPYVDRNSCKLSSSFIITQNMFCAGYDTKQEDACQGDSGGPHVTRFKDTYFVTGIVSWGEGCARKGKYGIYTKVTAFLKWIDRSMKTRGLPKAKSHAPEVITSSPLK
Target sequence in this assay (P00742 41-179 limits assumed): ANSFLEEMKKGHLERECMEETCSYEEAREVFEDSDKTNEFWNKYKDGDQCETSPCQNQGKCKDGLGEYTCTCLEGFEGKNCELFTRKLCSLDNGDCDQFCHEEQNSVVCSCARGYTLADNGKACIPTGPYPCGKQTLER

[6] = target: T1, activated blood coagulation factor X; experiment: Inhibitory activity against activated blood coagulation factor X (statement, no method given); format: biochemical
Target sequence in this assay (P00742 235-488 limits assumed): as the sequence (P00742 235-488 limits assumed) above
Target sequence in this assay (P00742 41-179 partner limits assumed): as the sequence (P00742 41-179 limits assumed) above

In the case of `CCCCOC(=O)COc1cc(-c2ccccc2S(C)(=O)=O)ccc1CCNS(=O)(=O)c1cc(C(=N)NO)ccc1O.Cl` [Example 1, n-butyl[4-[2-[2-hydroxy-5-(N-hydroxycarbamimidoyl)benzenesulfonylamino]ethyl]-2′-methanesulfonylbiphenyl-3-yloxy]acetate hydrochloride], the “Residual Rate (%)” value [1] is reported as 99.0%, the “Storage stability (in words)” value ([1]; listed as crystalline form B) is reported as “good storage stabilities” and the “Water solubility (in words)” value [2] is reported as “highly water-soluble”. For the same molecule, the solubility ([2]; 37° C., highest concentration over time, read-out: Saturated water solubility) was 1600 µg/mL, the “Ratio of PT” value (prothrombin time (PT)) was 1.50 and the “Oral bioavailability (in words)” value [3] was “good oral bioavailability”. For the same molecule, the “Stability of crystalline form on storage (in words)” value [4] was “without changing its crystalline form” and the inhibition at 6000 µg/mL (stock) [5] was 58.2%.

For `CCCCOC(=O)COc1cc(-c2ccccc2S(C)(=O)=O)ccc1CCNS(=O)(=O)c1cc(C(=N)NO)ccc1O.Cl` [Reference Example 1, n-butyl[4-[2-[2-hydroxy-5-(N-hydroxycarbamimidoyl)benzenesulfonylamino]ethyl]-2′-methanesulfonylbiphenyl-3-yloxy]acetate hydrochloride], the “Residual Rate (%)” value [1] was 96.8% and the “Storage stability (in words)” value ([1]; listed as crystalline form A) was “unsatisfactory stabilities”.

With `CCCCOC(=O)COc1cc(-c2ccccc2S(C)(=O)=O)ccc1CCNS(=O)(=O)c1cc(C(=N)NO)ccc1O.Cl.O` [Reference Example 2, n-butyl[4-[2-[2-hydroxy-5-(N-hydroxy-carbamimidoyl)benzenesulfonylamino]ethyl]-2′-methanesulfonylbiphenyl-3-yloxy]acetate hydrochloride monohydrate] the “Water solubility (in words)” value [2] was “poor water solubility” and the solubility ([2]; 37 °C) was 270 µg/mL.

In the case of `CCCCOC(=O)COc1cc(-c2ccccc2S(C)(=O)=O)ccc1CCNS(=O)(=O)c1cc(C(=N)NO)ccc1O.Cl` [formula (I), n-Butyl[4-[2-[2-hydroxy-5-(N-hydroxycarbamimidoyl)benzenesulfontylamino]ethyl]-2′-methanesulfonylbiphenyl-3-yloxy]acetate hydrochloride], the “Inhibitory activities against activated blood coagulation factor X (in words)” value [6] is reported as “excellent inhibitory activities”.
